{"source": "patent US10383918B2", "about": "“Compositions in the form of an injectable aqueous solution comprising human glucagon and a statistical co-polyamino acid” (ADOCIA, priority 2016, dated 2019)", "origin": "cited, not measured here", "details": "lyophilizate reconstituted at acidic pH (pH<3)"}
{"substance": "H-His-Ser-Gln-Gly-Thr-Phe-Thr-Ser-Asp-Tyr-Ser-Lys-Tyr-Leu-Asp-Ser-Arg-Arg-Ala-Gn-Asp-Phe-Val-Gn-Trp-Leu-Met-Asn-Thr-OH [human glucagon]", "values": [{"measurement": "Time to appearance of human glucagon fibrils after the reconstitution", "value": "≤ 24", "unit": "h"}]}
